Results as given in patent US8835445B2, “Dihydrofolate reductase inhibitors” (Trius Therapeutics, Inc., priority 2010, dated 2014).
≈ marks a conversion by molar mass, not a printed value. Where two headings read alike, the source gives them in different places. Values belong to the compound of their own block, whether it stands above or below them.

Columns and labels:
S. aureus = assay: Antibacterial activity (MIC), whole-cell bacterial growth inhibition; assay type: cell-based, Staphylococcus aureus; conditions: for MIC: Staphylococcus aureus
From the text: Antibacterial activity as measured by the minimal inhibitory concentrations (MIC) and minimal bactericidal concentrations of compounds are well known (see., e.g., National Committee for Clinical Laboratory Standards 2000 Performance standards for antimicrobial disk susceptibility tests: approved standard, 7th ed. M2-A7, vol. 20, no. 1, Committee for Clinical Laboratory Standards, Wayne, Pa.) In vitro testing for antibacterial activity may be accomplished through use of a whole-cell bacterial growth inhibition assay. For example, an […] assay identifies a substance that inhibits bacterial growth. Microtiter plates are prepared with serial dilutions of the test compound, adding to the preparation a given amount of growth substrate, and providing a preparation of bacteria. Inhibition of bacterial growth is determined, for example, by observing changes in optical densities of the bacterial cultures. Inhibition of bacterial growth is determined, for example, by comparing (in the presence and absence of a test compound) the rate of growth or the absolute growth of bacterial cells. Inhibition includes a reduction of one of the above measurements by at least 20%.

human DHFR = human DHFR (Homo sapiens (Human), UniProt P00374); assay: DHFR enzymatic inhibition (Ki), human DHFR; assay type: biochemical
S. aurues DHFR = S. aurues DHFR (Staphylococcus aureus, UniProt P0A017); assay: biochemical; assay type: biochemical
[1] = S. aureus in 20% serum, read-out: MIC in μg/ml S. aureus in 20% serum
[2] = S. aureus, read-out: MIC in μg/ml S. aureus

human DHFR, sequence (P00374 whole entry): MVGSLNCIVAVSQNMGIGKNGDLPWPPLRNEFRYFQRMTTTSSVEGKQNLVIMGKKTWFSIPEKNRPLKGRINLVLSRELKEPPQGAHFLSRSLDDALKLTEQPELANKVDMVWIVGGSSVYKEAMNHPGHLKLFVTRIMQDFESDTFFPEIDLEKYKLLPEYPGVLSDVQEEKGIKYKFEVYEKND

SMILES: Cc1cc2nc(-c3nccs3)n(-c3cc4nc(N)nc(N)c4cc3C)c2cc1C [Compound 26, 7-(5,6-dimethyl-2-(thiazol-2-yl)-1H-benzo[d]-imidazol-1-yl)-6-methylquin-azoline-2,4-diamine]
MIC (S. aureus; [1]): ≤ 0.125 µg/mL | MIC (S. aureus; [2]): ≤ 0.125 µg/mL | Ki (human DHFR): 2.9 nM | Ki (S. aurues DHFR): 0.03 nM

SMILES: Cc1cc2c(N)nc(N)nc2cc1-c1cnc2[nH]ccc2c1 [Compound 27, 6-methyl-7-(1H-pyrrolo[2,3-b]pyridin-5-yl)quin-azoline-2,4-diamine]
MIC (S. aureus; [1]): 4 µg/mL (≈ 13.8 µM) | MIC (S. aureus; [2]): 4 µg/mL (≈ 13.8 µM) | Ki (human DHFR): 235 nM | Ki (S. aurues DHFR; S. aureus DHFR): 2.6 nM

MIC (S. aureus; [1]): 1 µg/mL (≈ 3.17 µM) | MIC (S. aureus; [2]): 0.5 µg/mL (≈ 1.58 µM) | Ki (human DHFR): 56 nM | Ki (S. aurues DHFR; S. aureus DHFR): 0.72 nM
SMILES: COc1cc(-c2cc3nc(N)nc(N)c3cc2C)c(Cl)cn1 [Compound 28, 7-(5-chloro-2-methoxypyridin-4-yl)-6-methylquin-azoline-2,4-diamine]

MIC (S. aureus; [1]): 0.5 µg/mL (≈ 1.6 µM) | MIC (S. aureus; [2]): 0.5 µg/mL (≈ 1.6 µM) | Ki (human DHFR): 54.7 nM | Ki (S. aurues DHFR; S. aureus DHFR): 0.4 nM
SMILES: COc1ncc(-c2cc3nc(N)nc(N)c3cc2C)c(OC)n1 [Compound 29, 7-(2,4-dimethoxypyrimidin-5-yl)-6-methylquinazo-line-2,4-diamine]

SMILES: CCOc1ccc(-c2cccc(NS(C)(=O)=O)c2)cc1-c1ccc2c(N)nc(N)nc2c1 [Compound 30, N-(3′-(2,4-diaminoquinoazlin-7-yl)-4′-ethoxybiphenyl-3-yl)methanesulfonamide]
MIC (S. aureus; [1]): 2 µg/mL (≈ 4.45 µM) | MIC (S. aureus; [2]): ≤ 0.5 µg/mL | Ki (human DHFR): 5.8 nM | Ki (S. aurues DHFR; S. aureus DHFR): 0.02 nM

SMILES: CCOc1ccc2ccccc2c1-c1cc2nc(N)nc(N)c2cc1C [Compound 31, 7-(2-ethoxynaphthalen-1-yl)-6-methylquinazoline-2,4-diamine]
MIC (S. aureus; [1]): 0.5 µg/mL (≈ 1.45 µM) | MIC (S. aureus; [2]): ≤ 0.125 µg/mL | Ki (human DHFR): 4.5 nM | Ki (S. aurues DHFR; S. aureus DHFR): 0.026 nM

SMILES: COC(=O)c1ccc2c(c1)nc(-c1nccs1)n2-c1ccc2c(N)nc(N)nc2c1 [Compound 32, methyl 1-(2,4-diaminoquinazolin-7-yl)-2-(thiazol-2-yl)-1H-benzo[d]imidazole-5-carboxylate]
MIC (S. aureus; [1]): 2 µg/mL (≈ 4.79 µM) | MIC (S. aureus; [2]): 0.25 µg/mL (≈ 0.599 µM) | Ki (human DHFR): 53.1 nM | Ki (S. aurues DHFR; S. aureus DHFR): 0.021 nM

SMILES: COc1cc(-c2cc3nc(N)nc(N)c3cc2C)cc(OC)c1OC [Compound 33, 6-methyl-7-(3,4,5-trimethoxyphenyl) quinazoline-2,4-diamine]
MIC (S. aureus; [1]): 1 µg/mL (≈ 2.94 µM) | MIC (S. aureus; [2]): ≤ 0.5 µg/mL | Ki (human DHFR): 47.1 nM | Ki (S. aurues DHFR; S. aureus DHFR): 0.91 nM

SMILES: Cc1cc2nc(-c3nccs3)n(-c3cc4nc(N)nc(N)c4cc3Cl)c2cc1C [Compound 34, 6-chloro-7-(5,6-dimethyl-2-(thiazol-2-yl)-1H-benzo[d]imidazol-1-yl)quinazoline-2,4-diamine]
MIC in μg/ml S. aureus (S. aureus; S. aureus): ≦0.125 μg/ml | MIC in μg/ml S. aureus in 20% serum (S. aureus; S. aureus in 20% serum): 2 µg/mL (≈ 4.74 µM) | Ki (human DHFR): 8.8 nM | Ki (S. aurues DHFR; S. aureus DHFR): 0.016 nM

SMILES: COc1cc2nc(-c3nccs3)n(-c3ccc4c(N)nc(N)nc4c3)c2cc1OC [Compound 35]
MIC (S. aureus; [1]): 0.25 µg/mL (≈ 0.596 µM) | MIC (S. aureus; [2]): 0.25 µg/mL (≈ 0.596 µM) | Ki (human DHFR): 854 nM | Ki (S. aurues DHFR; S. aureus DHFR): 0.16 nM

SMILES: Cc1ccc2c(c1)nc(-c1cccs1)n2-c1ccc2c(N)nc(N)nc2c1 [Compound 36]
MIC (S. aureus; [1]): 1 µg/mL (≈ 2.68 µM) | MIC (S. aureus; [2]): 1 µg/mL (≈ 2.68 µM) | Ki (human DHFR): 314 nM | Ki (S. aurues DHFR; S. aureus DHFR): 0.005 nM

SMILES: COc1ccc2nc(-c3ccco3)n(-c3ccc4c(N)nc(N)nc4c3)c2n1 [Compound 37]
MIC (S. aureus; [1]): 0.5 µg/mL (≈ 1.34 µM) | MIC (S. aureus; [2]): 0.25 µg/mL (≈ 0.67 µM) | Ki (human DHFR): 797 nM | Ki (S. aurues DHFR; S. aureus DHFR): 0.039 nM

SMILES: COc1cnc(Cl)cc1-c1cc2nc(N)nc(N)c2cc1C [Compound 38, 7-(2-chloro-5-methyloxypyridin-4-yl)-6-methylquinazoline-2,4-diamine]
MIC (S. aureus; [1]): 1 µg/mL (≈ 3.17 µM) | MIC (S. aureus; [2]): 1 µg/mL (≈ 3.17 µM) | Ki (human DHFR): 52.4 nM | Ki (S. aurues DHFR; S. aureus DHFR): 1.4 nM

SMILES: CCOc1ccc(C(=O)N(CC)CC)cc1-c1cc2nc(N)nc(N)c2cc1C [Compound 40, 3-(2,4-diamino-6-methylquinazolin-7-yl)-4-ethoxy-N,N-diethylbenzamide]
MIC (S. aureus; [1]): 0.25 µg/mL (≈ 0.635 µM) | MIC (S. aureus; [2]): 0.25 µg/mL (≈ 0.635 µM) | Ki (human DHFR): 34 nM | Ki (S. aurues DHFR; S. aureus DHFR): 0.025 nM

SMILES: Cc1cc2c(N)nc(N)nc2cc1-c1c[nH]c2ccccc12 [Compound 41, 7-(1H-indol-3-yl)-6-methylquinazoline-2,4-diamine]
MIC (S. aureus; [1]): 0.5 µg/mL (≈ 1.73 µM) | MIC (S. aureus; [2]): 0.25 µg/mL (≈ 0.864 µM) | Ki (human DHFR): 50.5 nM | Ki (S. aurues DHFR; S. aureus DHFR): 0.11 nM
